Experiments:
[1] = test system: Oryza sativa, (L.) Tebonnet; assay: Rice tolerance to post-transplant applications under flooded paddy conditions (Example 188), ORYSAT (Rice, Tebonnet); details: rated three to four weeks after treatment
Sagittaria pygmaea, L. [2] = assay: Postemergence weed control under flooded paddy conditions, SAGPY (Arrowhead (Pygmaea)); type: in vivo; details: rated three to four weeks after treatment
Cyperus iria [3] = assay: Postemergence weed control under flooded paddy conditions, CYPIR (Rice Flatsedge); type: in vivo; details: rated three to four weeks after treatment
Sagittaria pygmaea, L. [4] = assay: Preemergence weed control under flooded paddy conditions, SAGPY (Arrowhead (Pygmaea)); type: in vivo; details: preemergence, flooded paddy, rated three to four weeks after treatment; also: meaning of each grade not given here
[5] = test system: Echinochloa oryzoides (Ard.) Fritsch.; assay: Preemergence weed control under flooded paddy conditions, ECHORC (Watergrass (Calif.)); type: in vivo; details: preemergence, flooded paddy, rated three to four weeks after treatment; also: meaning of each grade not given here
[6] = test system: Cyperus serotinus, Rottb.; assay: Postemergence weed control under flooded paddy conditions, CYPSE (Flatsedge); type: in vivo; details: rated three to four weeks after treatment
[7] = test system: Cyperus serotinus, Rottb.; assay: Preemergence weed control under flooded paddy conditions, CYPSE (Flatsedge); type: in vivo; details: preemergence, rated three to four weeks after treatment; also: meaning of each grade not given here
[8] = test system: Echinochloa oryzoides (Ard.) Fritsch.; assay: Postemergence weed control under flooded paddy conditions, ECHORC (Watergrass (Calif.)); type: in vivo; details: rated three to four weeks after treatment
[9] = test system: Monochoria vaginalis, Presl.; assay: Preemergence weed control under flooded paddy conditions, MOOVA (Monochoria); type: in vivo; details: preemergence, flooded paddy, rated three to four weeks after treatment; also: meaning of each grade not given here
[10] = test system: Oryza sativa, (L.) Tebonnet; assay: Rice tolerance to post-transplant applications under flooded paddy conditions (Example 187), ORYSAT (Rice, Tebonnet); details: rated three to four weeks after treatment
[11] = test system: Monochoria vaginalis, Presl.; assay: Postemergence weed control under flooded paddy conditions, MOOVA (Monochoria); type: in vivo; details: rated three to four weeks after treatment
Cyperus iria [12] = assay: Preemergence weed control under flooded paddy conditions, CYPIR (Rice Flatsedge); type: in vivo; details: preemergence, flooded paddy, rated three to four weeks after treatment; also: meaning of each grade not given here

Compound: COC(=O)COc1cc(C)c(C)cc1-c1nsc2ccc(-n3c(=O)cc(C(F)(F)F)n(C)c3=O)cc12 [Example 12, Methyl {{6-{5-[3,6-dihydro-3-methyl-4-(trifluoromethyl)-2,6-dioxo-1(2H)-pyrimidinyl]-1,2-benzisothiazol-3-yl}-3,4-xylyl}oxy}acetate]
- herbicidal effect rating, ORYSAT (rice tolerance) ([1]; Rate 0.0313 kg/ha): 4.0
- herbicidal effect rating, ORYSAT (rice tolerance) ([1]; Rate 0.0625 kg/ha): 4.0
- herbicidal effect rating, ORYSAT (rice tolerance) ([1]; Rate 0.1250 kg/ha): 7.0
- herbicidal effect rating, ORYSAT (rice tolerance) ([1]; Rate 0.2500 kg/ha): 7.0
- herbicidal effect rating, ORYSAT (rice tolerance) ([1]; Rate 0.5000 kg/ha): 7.0
- herbicidal effect rating, SAGPY (Sagittaria pygmaea, L. [2]; Rate 0.0313 kg/ha): 0.0
- herbicidal effect rating, SAGPY (Sagittaria pygmaea, L. [2]; Rate 0.0625 kg/ha): 0.0
- herbicidal effect rating, SAGPY (Sagittaria pygmaea, L. [2]; Rate 0.1250 kg/ha): 0.0
- herbicidal effect rating, SAGPY (Sagittaria pygmaea, L. [2]; Rate 0.2500 kg/ha): 4.0
- herbicidal effect rating, SAGPY (Sagittaria pygmaea, L. [2]; Rate 0.5000 kg/ha): 9.0
- herbicidal effect rating, CYPIR (Cyperus iria [3]; Rate 0.0313 kg/ha): 9.0
- herbicidal effect rating, CYPIR (Cyperus iria [3]; Rate 0.0625 kg/ha): 9.0
- herbicidal effect rating, CYPIR (Cyperus iria [3]; Rate 0.1250 kg/ha): 9.0
- herbicidal effect rating, CYPIR (Cyperus iria [3]; Rate 0.2500 kg/ha): 9.0
- herbicidal effect rating, CYPIR (Cyperus iria [3]; Rate 0.5000 kg/ha): 9.0
- herbicidal effect rating, SAGPY (Sagittaria pygmaea, L. [4]; 0.0313 kg/ha): 0.0
- herbicidal effect rating, SAGPY (Sagittaria pygmaea, L. [4]; 0.0625 kg/ha): 2.0
- herbicidal effect rating, SAGPY (Sagittaria pygmaea, L. [4]; 0.1250 kg/ha): 4.0
- herbicidal effect rating, SAGPY (Sagittaria pygmaea, L. [4]; 0.2500 kg/ha): 9.0
- herbicidal effect rating, SAGPY (Sagittaria pygmaea, L. [4]; 0.5000 kg/ha): 9.0
- herbicidal effect rating, ECHORC ([5]; 0.0313 kg/ha): 9.0
- herbicidal effect rating, ECHORC ([5]; 0.0625 kg/ha): 9.0
- herbicidal effect rating, ECHORC ([5]; 0.1250 kg/ha): 9.0
- herbicidal effect rating, ECHORC ([5]; 0.2500 kg/ha): 9.0
- herbicidal effect rating, ECHORC ([5]; 0.5000 kg/ha): 9.0
- herbicidal effect rating, CYPSE ([6]; Rate 0.0313 kg/ha): 0.0
- herbicidal effect rating, CYPSE ([6]; Rate 0.0625 kg/ha): 0.0
- herbicidal effect rating, CYPSE ([6]; Rate 0.5000 kg/ha): 2.0
- herbicidal effect rating, CYPSE ([7]; 0.0313 kg/ha): 6.0
- herbicidal effect rating, CYPSE ([7]; 0.0625 kg/ha): 7.0
- herbicidal effect rating, CYPSE ([7]; 0.1250 kg/ha): 8.0
- herbicidal effect rating, CYPSE ([7]; 0.2500 kg/ha): 7.0
- herbicidal effect rating, CYPSE ([7]; 0.5000 kg/ha): 7.0
- herbicidal effect rating, ECHORC ([8]; Rate 0.0313 kg/ha): 0.0
- herbicidal effect rating, ECHORC ([8]; Rate 0.0625 kg/ha): 2.0
- herbicidal effect rating, ECHORC ([8]; Rate 0.1250 kg/ha): 6.0
- herbicidal effect rating, ECHORC ([8]; Rate 0.2500 kg/ha): 9.0
- herbicidal effect rating, ECHORC ([8]; Rate 0.5000 kg/ha): 9.0
- herbicidal effect rating, MOOVA ([9]; 0.0313 kg/ha): 9.0
- herbicidal effect rating, MOOVA ([9]; 0.0625 kg/ha): 9.0
- herbicidal effect rating, MOOVA ([9]; 0.1250 kg/ha): 9.0
- herbicidal effect rating, MOOVA ([9]; 0.2500 kg/ha): 9.0
- herbicidal effect rating, MOOVA ([9]; 0.5000 kg/ha): 9.0
- herbicidal effect rating, ORYSAT (rice tolerance) ([10]; 0.0313 kg/ha): 4.0
- herbicidal effect rating, ORYSAT (rice tolerance) ([10]; 0.0625 kg/ha): 7.0
- herbicidal effect rating, ORYSAT (rice tolerance) ([10]; 0.1250 kg/ha): 7.0
- herbicidal effect rating, ORYSAT (rice tolerance) ([10]; 0.2500 kg/ha): 8.0
- herbicidal effect rating, ORYSAT (rice tolerance) ([10]; 0.5000 kg/ha): 9.0
- herbicidal effect rating, MOOVA ([11]; Rate 0.0313 kg/ha): 9.0
- herbicidal effect rating, MOOVA ([11]; Rate 0.0625 kg/ha): 9.0
- herbicidal effect rating, MOOVA ([11]; Rate 0.1250 kg/ha): 9.0
- herbicidal effect rating, MOOVA ([11]; Rate 0.2500 kg/ha): 9.0
- herbicidal effect rating, MOOVA ([11]; Rate 0.5000 kg/ha): 9.0
- herbicidal effect rating, CYPIR (Cyperus iria [12]; 0.0313 kg/ha): 9.0
- herbicidal effect rating, CYPIR (Cyperus iria [12]; 0.0625 kg/ha): 9.0
- herbicidal effect rating, CYPIR (Cyperus iria [12]; 0.1250 kg/ha): 9.0
- herbicidal effect rating, CYPIR (Cyperus iria [12]; 0.2500 kg/ha): 9.0
- herbicidal effect rating, CYPIR (Cyperus iria [12]; 0.5000 kg/ha): 9.0

Compound: COC(=O)C(C)Oc1cc(C)c(C)cc1-c1nsc2ccc(-n3c(=O)cc(C(F)(F)F)n(C)c3=O)cc12 (stereo not shown) [Example 13, Methyl 2-{{6-{5-[3,6-dihydro-3-methyl-4-(trifluoromethyl)-2,6-dioxo-1(2H)-pyrimidinyl]-1,2-benzisothiazol-3-yl}-3,4-xylyl}oxy}propionate]
- herbicidal effect rating, ORYSAT (rice tolerance) ([1]; Rate 0.0313 kg/ha): 2.0
- herbicidal effect rating, ORYSAT (rice tolerance) ([1]; Rate 0.0625 kg/ha): 2.0
- herbicidal effect rating, ORYSAT (rice tolerance) ([1]; Rate 0.1250 kg/ha): 4.0
- herbicidal effect rating, ORYSAT (rice tolerance) ([1]; Rate 0.2500 kg/ha): 4.0
- herbicidal effect rating, ORYSAT (rice tolerance) ([1]; Rate 0.5000 kg/ha): 7.0
- herbicidal effect rating, SAGPY (Sagittaria pygmaea, L. [2]; Rate 0.0313 kg/ha): 0.0
- herbicidal effect rating, SAGPY (Sagittaria pygmaea, L. [2]; Rate 0.0625 kg/ha): 0.0
- herbicidal effect rating, SAGPY (Sagittaria pygmaea, L. [2]; Rate 0.1250 kg/ha): 2.0
- herbicidal effect rating, SAGPY (Sagittaria pygmaea, L. [2]; Rate 0.2500 kg/ha): 2.0
- herbicidal effect rating, SAGPY (Sagittaria pygmaea, L. [2]; Rate 0.5000 kg/ha): 9.0
- herbicidal effect rating, CYPIR (Cyperus iria [3]; Rate 0.0313 kg/ha): 9.0
- herbicidal effect rating, CYPIR (Cyperus iria [3]; Rate 0.0625 kg/ha): 9.0
- herbicidal effect rating, CYPIR (Cyperus iria [3]; Rate 0.1250 kg/ha): 9.0
- herbicidal effect rating, CYPIR (Cyperus iria [3]; Rate 0.2500 kg/ha): 9.0
- herbicidal effect rating, CYPIR (Cyperus iria [3]; Rate 0.5000 kg/ha): 9.0
- herbicidal effect rating, SAGPY (Sagittaria pygmaea, L. [4]; 0.0313 kg/ha): 0.0
- herbicidal effect rating, SAGPY (Sagittaria pygmaea, L. [4]; 0.0625 kg/ha): 2.0
- herbicidal effect rating, SAGPY (Sagittaria pygmaea, L. [4]; 0.1250 kg/ha): 6.0
- herbicidal effect rating, SAGPY (Sagittaria pygmaea, L. [4]; 0.2500 kg/ha): 8.0
- herbicidal effect rating, SAGPY (Sagittaria pygmaea, L. [4]; 0.5000 kg/ha): 9.0
- herbicidal effect rating, ECHORC ([5]; 0.0313 kg/ha): 9.0
- herbicidal effect rating, ECHORC ([5]; 0.0625 kg/ha): 9.0
- herbicidal effect rating, ECHORC ([5]; 0.1250 kg/ha): 9.0
- herbicidal effect rating, ECHORC ([5]; 0.2500 kg/ha): 9.0
- herbicidal effect rating, ECHORC ([5]; 0.5000 kg/ha): 9.0
- herbicidal effect rating, CYPSE ([6]; Rate 0.0313 kg/ha): 0.0
- herbicidal effect rating, CYPSE ([6]; Rate 0.0625 kg/ha): 0.0
- herbicidal effect rating, CYPSE ([6]; Rate 0.1250 kg/ha): 2.0
- herbicidal effect rating, CYPSE ([6]; Rate 0.2500 kg/ha): 4.0
- herbicidal effect rating, CYPSE ([6]; Rate 0.5000 kg/ha): 2.0
- herbicidal effect rating, CYPSE ([7]; 0.0313 kg/ha): 0.0
- herbicidal effect rating, CYPSE ([7]; 0.0625 kg/ha): 2.0
- herbicidal effect rating, CYPSE ([7]; 0.1250 kg/ha): 7.0
- herbicidal effect rating, CYPSE ([7]; 0.2500 kg/ha): 7.0
- herbicidal effect rating, CYPSE ([7]; 0.5000 kg/ha): 7.0
- herbicidal effect rating, ECHORC ([8]; Rate 0.0313 kg/ha): 0.0
- herbicidal effect rating, ECHORC ([8]; Rate 0.0625 kg/ha): 2.0
- herbicidal effect rating, ECHORC ([8]; Rate 0.1250 kg/ha): 6.0
- herbicidal effect rating, ECHORC ([8]; Rate 0.2500 kg/ha): 8.0
- herbicidal effect rating, ECHORC ([8]; Rate 0.5000 kg/ha): 9.0
- herbicidal effect rating, MOOVA ([9]; 0.0313 kg/ha): 9.0
- herbicidal effect rating, MOOVA ([9]; 0.0625 kg/ha): 9.0
- herbicidal effect rating, MOOVA ([9]; 0.1250 kg/ha): 9.0
- herbicidal effect rating, MOOVA ([9]; 0.2500 kg/ha): 9.0
- herbicidal effect rating, MOOVA ([9]; 0.5000 kg/ha): 9.0
- herbicidal effect rating, ORYSAT (rice tolerance) ([10]; 0.0313 kg/ha): 4.0
- herbicidal effect rating, ORYSAT (rice tolerance) ([10]; 0.0625 kg/ha): 6.0
- herbicidal effect rating, ORYSAT (rice tolerance) ([10]; 0.1250 kg/ha): 7.0
- herbicidal effect rating, ORYSAT (rice tolerance) ([10]; 0.2500 kg/ha): 7.0
- herbicidal effect rating, ORYSAT (rice tolerance) ([10]; 0.5000 kg/ha): 9.0
- herbicidal effect rating, MOOVA ([11]; Rate 0.0313 kg/ha): 9.0
- herbicidal effect rating, MOOVA ([11]; Rate 0.0625 kg/ha): 9.0
- herbicidal effect rating, MOOVA ([11]; Rate 0.1250 kg/ha): 9.0
- herbicidal effect rating, MOOVA ([11]; Rate 0.2500 kg/ha): 9.0
- herbicidal effect rating, MOOVA ([11]; Rate 0.5000 kg/ha): 9.0
- herbicidal effect rating, CYPIR (Cyperus iria [12]; 0.0313 kg/ha): 9.0
- herbicidal effect rating, CYPIR (Cyperus iria [12]; 0.0625 kg/ha): 9.0
- herbicidal effect rating, CYPIR (Cyperus iria [12]; 0.1250 kg/ha): 9.0
- herbicidal effect rating, CYPIR (Cyperus iria [12]; 0.2500 kg/ha): 9.0
- herbicidal effect rating, CYPIR (Cyperus iria [12]; 0.5000 kg/ha): 9.0

Reference: patent publication EP0908457B1, “3-(1,2-benzisothiazol- and isoxazol-5-Y1)-2,4(1H,3H)-pyrimidinedione or thione and 3-(1,2-benzisothiazol- and isoxazol-5-y1)-4(3H)-pyrimidinone or thione herbicidal agents” (BASF AKTIENGESELLSCHAFT, priority 1997, dated 1999)
